# Results from US10975056B2 (GlaxoSmithKline Intellectual Property Development Limited, priority 2016, dated 2021).
# pIC50: −log10 of the molar value. Several values for one entry are separate records, joined by “and”; a condition that tells them apart may be missing. Equal values may be shown once. Where a name gives a salt, the structure may show the parent alone. Read-outs that look alike come from different tables or passages of the source.
# How the values were obtained:
# [1] = tested on: erythroid progenitor cells (EPCs); assay: Fetal hemoglobin (HbF) ELISA in day 7 erythroid progenitor cells; type: cell-based, human; details: Homo sapiens, Erythroid progenitor cell, HbF ELISA, day 7 EPCs, 5 days; read-out: EPC ELISA (pEC50 category) (converted)
# Method: Day 7 EPCs were cultured in duplicate plates with serially diluted Compound A for 5 days at 37° C. Wells were then analyzed for either induction of fetal hemoglobin (HbF,HbF ELISA) or cell growth (Cell Titer-Glo). In both cases, signal was normalized to vehicle-control treated cells.
# Culture, Expansion, and Characterization of Day 7 Erythroid Progenitor Cells (EPC)s
# All donors provided written informed consent for use of their samples, and the collection and use of the samples received institutional review board approval. All cryopreserved human bone marrow CD34+ cells used here were obtained from AlICells (Emeryville, Calif.) and were generally from different donors. The CD34+ cells were cultured to generate EPCs at day 7. Briefly, 1 million cells were cultured in 5% CO2, 5% O2 at 37° C. in H3000 Stemspan media (StemCell Technologies Vancouver, BC, Canada) supplemented with 2 mM L-glutamine, 40 μg/mL human low-density lipoproteins (StemCell Technologies), 10 ng/mL recombinant human (rh) interleukin IL-3 (R&D Systems, Minneapolis, Minn.), 100 ng/mL rh stem cell factor (R&D Systems), and 0.5 U/mL rh erythropoietin (Invitrogen, Grand Island, N.Y.). Cells were split and refed on day 4 with complete culture media described above and harvested on day 7 for evaluation of erythroid marker expression and assessment of γ-globin induction. Day 7 EPCs were then frozen in liquid nitrogen at 5 to 10 million cells/mL in 95% fetal bovine serum (FBS; Invitrogen) with 5% DMSO for subsequent use.
# At the time of compound treatment, frozen day 7 EPCs prepared as described above were thawed, washed once and re-suspended in complete culture media as described above with the exception of an increase of rhEPO to 3 U/mL. Cells were counted and diluted to […] for plating into assay plates. Cells were then dispensed, at 30 μL per well with Multidrop™ Combi Reagent Dispenser (Thermo Scientific), into 384-well cell culture plates into which test compounds were pre-dispensed at 100 nL/well. Black Clear Bottom (Greiner Bio-One; 781090) and White (Greiner Bio-One; 781080) plates were used for ELISA and Cell Titer-Glo assays, respectively. The final cell density in the assays is 1,000 cells per well, with final compound concentrations between 33 nM (highest) and […] (lowest) for the 22-points serial dilution.
# Fetal Hemoglobin (HbF) ELISA
# Coating anti-HbF Ab (Bethyl Lab; cat. A80-136A) was diluted by 100-fold in the coating buffer (0.05 M carbonate-bicarbonate, pH 9.6), and then 20 μL/well was added to a 384-well MaxiSorp ELISA plate (Thermo Fisher; cat. 464718). After 1 hour incubation at room temperature, the plates were washed twice with ELISA washing buffer (50 mM Tris, 0.05% Tween 20, pH 8.0) with an EL406 plate washer (BioTek, Winooski, Vt.). Then, 40 μL/well of blocking buffer consisting of 50 mM Tris and 1% BSA (pH 8.0) was added to the plate and stored at 4° C. with cover sheet overnight, or until time of the assay. The coated ELISA plates were stable for up to 30 days at 4° C. On the day of assay, the plates were washed twice with ELISA washing buffer prior to addition of cell lysate.
# After 5 days at 37° C. with 5% CO2 cell culture plates for ELISA assay were put into −80° C. freezer for a minimum of 2 hours. After thawing at room temperature, 30 μL of cell lysis buffer (Invitrogen; cat. FNN0011, supplemented with 1× protease inhibitor) was added to each well and the resulting cell lysate was mixed eight times with a Cybi-Well (Jena, Germany) pipettor. Following the mixing procedure, 20 μL/well of lysate was transferred to the coated ELISA plates described above followed by a 1 hour incubation at room temperature. The ELISA assay plates were washed three times with ELISA wash buffer. 20 μL per well of 1:75,000 to 100,000 diluted horseradish peroxidase (HRP) conjugate detection antiHbF Ab (Bethyl Labs; cat. A80-136P, diluted in 50 mM Tris [pH 8.0], 1% BSA, 0.05% Tween-20) was then added. […]
# DNMT1 = DNMT1 (Homo sapiens, UniProt P26358); assay: DNMT1 biochemical activity, breaklight assay and/or SPA assay
# DNMT1, sequence (P26358 whole entry, looked up): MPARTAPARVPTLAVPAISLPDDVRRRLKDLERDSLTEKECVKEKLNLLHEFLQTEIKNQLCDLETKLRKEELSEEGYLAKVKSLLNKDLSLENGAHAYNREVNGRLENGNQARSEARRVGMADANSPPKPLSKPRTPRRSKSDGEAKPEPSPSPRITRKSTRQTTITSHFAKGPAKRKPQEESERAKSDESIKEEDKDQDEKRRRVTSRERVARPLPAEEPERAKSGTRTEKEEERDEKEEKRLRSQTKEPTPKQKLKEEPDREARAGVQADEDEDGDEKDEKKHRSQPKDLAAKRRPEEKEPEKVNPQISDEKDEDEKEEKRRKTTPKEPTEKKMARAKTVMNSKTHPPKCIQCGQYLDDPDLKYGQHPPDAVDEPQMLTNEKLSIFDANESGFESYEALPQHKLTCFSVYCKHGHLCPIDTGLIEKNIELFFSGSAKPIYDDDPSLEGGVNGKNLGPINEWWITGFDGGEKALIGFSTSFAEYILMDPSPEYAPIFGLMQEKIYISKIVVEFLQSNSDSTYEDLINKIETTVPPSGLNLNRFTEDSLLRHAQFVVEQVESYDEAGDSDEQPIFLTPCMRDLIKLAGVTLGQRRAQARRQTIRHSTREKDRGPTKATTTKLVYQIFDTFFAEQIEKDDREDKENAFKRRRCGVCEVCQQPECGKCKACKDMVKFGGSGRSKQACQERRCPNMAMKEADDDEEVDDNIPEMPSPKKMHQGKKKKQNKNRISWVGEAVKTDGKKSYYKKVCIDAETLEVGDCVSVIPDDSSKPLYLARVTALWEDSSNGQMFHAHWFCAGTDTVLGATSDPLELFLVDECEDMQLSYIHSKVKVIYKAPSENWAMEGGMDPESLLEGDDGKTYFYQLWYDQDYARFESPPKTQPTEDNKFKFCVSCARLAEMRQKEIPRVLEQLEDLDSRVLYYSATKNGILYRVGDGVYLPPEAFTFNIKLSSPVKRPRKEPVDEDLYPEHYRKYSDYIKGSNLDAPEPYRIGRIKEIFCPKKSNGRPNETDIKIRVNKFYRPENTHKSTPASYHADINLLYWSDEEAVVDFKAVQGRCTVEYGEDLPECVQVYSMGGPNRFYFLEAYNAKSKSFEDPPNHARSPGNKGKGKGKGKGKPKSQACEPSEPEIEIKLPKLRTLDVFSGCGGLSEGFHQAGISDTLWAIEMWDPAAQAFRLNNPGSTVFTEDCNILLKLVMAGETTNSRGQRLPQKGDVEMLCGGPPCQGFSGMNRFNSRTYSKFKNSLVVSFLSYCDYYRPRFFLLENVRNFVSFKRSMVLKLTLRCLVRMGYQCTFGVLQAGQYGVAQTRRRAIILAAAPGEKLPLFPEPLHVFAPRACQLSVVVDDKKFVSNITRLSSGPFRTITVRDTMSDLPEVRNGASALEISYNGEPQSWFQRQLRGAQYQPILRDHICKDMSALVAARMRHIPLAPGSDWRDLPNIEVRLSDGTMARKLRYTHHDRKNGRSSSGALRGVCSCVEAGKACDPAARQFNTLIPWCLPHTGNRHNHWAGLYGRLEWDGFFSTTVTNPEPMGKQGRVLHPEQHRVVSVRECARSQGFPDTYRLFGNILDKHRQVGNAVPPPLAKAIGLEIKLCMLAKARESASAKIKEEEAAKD
# [2] = binned activity in either the breaklight or the SPA assay
# [3] = binned activity in either the breaklight or the SPA assay, read-out: DNMT1 BioChemical (pIC50 category) (converted)
# [4] = breaklight assay and/or SPA assay, repeated experimental runs, read-out: average pIC50 against DNMT1 (converted)
Structure (SMILES),EC50 [1] [nM],DNMT1 BioChemical (pIC50 category) (DNMT1; [2]),IC50 (DNMT1; [3]) [nM],IC50 (DNMT1; [4]),"average pIC50 against DNMT1 (DNMT1; breaklight assay and/or SPA assay, repeated experimental runs)","pIC50 (DNMT1; DNMT1 BioChemical (pIC50 category), binned activity in either the breaklight or the SPA assay)"
"CN(C)C1CCN(c2nc(SC(C(N)=O)c3ccccc3)c(C#N)c(C3CC3)c2C#N)CC1 (stereo not shown) [Example 29, 2-((3,5-dicyano-4-cyclopropyl-6-(4-(dimethylamino)piperidin-1-yl)pyridin-2-yl)thio)-2-phenylacetamide]",< 316,D (Category D: ≥6.5),–,–,–,–
"N#Cc1c(SC(C(N)=O)c2ccncc2)nc(N2CCNCC2)c(C#N)c1C1CC1 (stereo not shown) [Example 30, 2-((3,5-dicyano-4-cyclopropyl-6-(piperazin-1-yl)pyridin-2-yl)thio)-2-(pyridin-4-yl)acetamide]",> 31600,–,316 to 1000,–,–,–
"N#Cc1c(SC(C(N)=O)c2ccccc2)nc(N2CCC[C@@H](O)C2)c(C#N)c1C1CC1 (stereo partly drawn) [Example 32, 2-((3,5-dicyano-4-cyclopropyl-6-((R)-3-hydroxypiperidin-1-yl)pyridin-2-yl)thio)-2-phenylacetamide]",1000 to 31600,D (Category D: ≥6.5),–,–,–,–
"N#Cc1c(SC(C(N)=O)c2ccccc2)nc(N2CCC[C@H](O)C2)c(C#N)c1C1CC1 (stereo partly drawn) [Example 33, 2-(3,5-dicyano-4-cyclopropyl-6-((S)-3-hydroxypiperidin-1-yl)pyridin-2-ylthio)-2-phenylacetamide]",316 to 1000,–,316 to 1000,–,–,–
"N#Cc1c(SC(C(N)=O)c2ccccc2)nc(N2CCC(CN3CCCC3)CC2)c(C#N)c1C1CC1 (stereo not shown) [Example 39, 2-((3,5-Dicyano-4-cyclopropyl-6-(4-(pyrrolidin-1-ylmethyl)piperidin-1-yl)pyridin-2-yl)thio)-2-phenylacetamide]",< 316,D (Category D: ≥6.5),–,–,–,–
"CCc1c(C#N)c(SC(C(N)=O)c2ccccc2)nc(N2CC(OC)C2)c1C#N (stereo not shown) [Example 54, 2-((3,5-Dicyano-4-ethyl-6-(3-methoxyazetidin-1-yl)pyridin-2-yl)thio)-2-phenylacetamide]",1000 to 31600,–,316 to 1000,–,–,–
"CCc1c(C#N)c(SC(C(N)=O)c2ccccc2)nc(N(C)C2CC3CCC(C2)N3)c1C#N (stereo not shown) [Example 62, 2-((6-(8-azabicyclo[3.2.1]octan-3-yl(methyl)amino)-3,5-dicyano-4-ethylpyridin-2-yl)thio)-2-phenylacetamide]",316 to 1000,–,–,–,–,6.00 to 6.50
"CCc1c(C#N)c(S[C@@H](C(N)=O)c2ccccc2)nc(N2CCOCC2)c1C#N [Example 65, (R)-2-[(3,5-Dicyano-4-ethyl-6-morpholino-2-pyridyl)sulfanyl]-2-phenyl-acetamide]",1000 to 31600,–,316 to 1000,–,–,–
"CCc1c(C#N)c(SCc2ccc(CNC(C)=O)cc2)nc(N2CCC(N3CCCC3)CC2)c1C#N [Example 66, N-(4-((3,5-Dicyano-4-ethyl-6-(4-(pyrrolidin-1-yl)piperidin-1-yl)pyridin-2-ylthio)methyl)benzyl)acetamide trifluoroacetate]",< 316,D (Category D: ≥6.5),–,–,–,–
"CCc1c(C#N)c(SC(C(N)=O)c2ccccc2)nc(N2CCNC(C)CC2)c1C#N (stereo not shown) [Example 67, 2-{[3,5-dicyano-4-ethyl-6-(5-methyl-1,4-diazepan-1-yl)pyridin-2-yl]sulfanyl}-2-phenylacetamide]",< 316,D (Category D: ≥6.5),–,–,–,–
"CCc1c(C#N)c(SCc2ccc(CN)cc2)nc(N2CCC(N3CCCC3)CC2)c1C#N [Example 68, 2-(4-(Aminomethyl)benzylthio)-4-ethyl-6-(4-(pyrrolidin-1-yl)piperidin-1-yl)pyridine-3,5-dicarbonitrile 2,2,2-trifluoroacetate]",> 31600,–,316 to 1000,–,–,–
"CCc1c(C#N)c(SCc2ccc(CNC(=O)OC(C)(C)C)cc2)nc(N2CCCN(C)CC2)c1C#N [Example 69, tert-Butyl 4-(((3,5-dicyano-4-ethyl-6-(4-methyl-1,4-diazepan-1-yl)pyridin-2-yl)thio)methyl)benzylcarbamate]",> 31600,–,1000 to 31600,≥ 1000 nM,–,–
"CCc1c(C#N)c(SCc2csc(NC(C)=O)n2)nc(N2CCCN(C)CC2)c1C#N [Example 75, N-(4-(((3,5-Dicyano-4-ethyl-6-(4-methyl-1,4-diazepan-1-yl)pyridin-2-yl)thio)methyl)thiazol-2-yl)acetamide]",> 31600,–,316 to 1000,–,–,–
"CCc1c(C#N)c(SCc2ccc(CNC(=O)CNC(=O)OC(C)(C)C)cc2)nc(N2CCCN(C)CC2)c1C#N [Example 78, tert-Butyl (2-((4-(((3,5-dicyano-4-ethyl-6-(4-methyl-1,4-diazepan-1-yl)pyridin-2-yl)thio)methyl)benzyl)amino)-2-oxoethyl)carbamate]",> 31600,–,316 to 1000,≥ 1000 nM,–,–

# Second part, led by results:
EC50 [1] [nM],DNMT1 BioChemical (pIC50 category) (DNMT1; [2]),IC50 (DNMT1; [3]) [nM],IC50 (DNMT1; [4]),"average pIC50 against DNMT1 (DNMT1; breaklight assay and/or SPA assay, repeated experimental runs)",Structure (SMILES),"pIC50 (DNMT1; DNMT1 BioChemical (pIC50 category), binned activity in either the breaklight or the SPA assay)"
316 to 1000,–,316 to 1000,316 to 1000 nM,–,"CCc1c(C#N)c(SCc2ccc(C(N)=O)cc2)nc(N2CCCN(C)CC2)c1C#N [Example 70, 4-(((3,5-Dicyano-4-ethyl-6-(4-methyl-1,4-diazepan-1-yl)pyridin-2-yl)thio)methyl)benzamide]",–
> 31600,D (Category D: ≥6.5),–,–,–,"CCc1c(C#N)c(SCc2ccc(CN)cc2)nc(N2CCCN(C)CC2)c1C#N [Example 71, 2-((4-(Aminomethyl)benzyl)thio)-4-ethyl-6-(4-methyl-1,4-diazepan-1-yl)pyridine-3,5-dicarbonitrile, 2Hydrochloride]",–
> 31600,–,1000 to 31600,≥ 1000 nM and 2000 nM,–,"CCc1c(C#N)c(SCc2ccc(CC(=O)O)cc2)nc(N2CCCN(C)CC2)c1C#N [Example 72, 2-(4-(((3,5-Dicyano-4-ethyl-6-(4-methyl-1,4-diazepan-1-yl)pyridin-2-yl)thio)methyl)phenyl)acetic acid]",–
> 31600,–,316 to 1000,–,–,"CCc1c(C#N)c(SCc2ccc(C(=O)O)cc2)nc(N2CCCN(C)CC2)c1C#N [Example 73, 4-(((3,5-Dicyano-4-ethyl-6-(4-methyl-1,4-diazepan-1-yl)pyridin-2-yl)thio)methyl)benzoic acid]",–
316 to 1000,D (Category D: ≥6.5),–,316 nM,–,"CCc1c(C#N)c(SCc2ccc(CNS(C)(=O)=O)cc2)nc(N2CCCN(C)CC2)c1C#N [Example 79, N-(4-(((3,5-Dicyano-4-ethyl-6-(4-methyl-1,4-diazepan-1-yl)pyridin-2-yl)thio)methyl)benzyl)methanesulfonamide]",–
316 to 1000,D (Category D: ≥6.5),–,–,> 6.5,"CCc1c(C#N)c(SCc2ccc(CNC(=O)CN)cc2)nc(N2CCCN(C)CC2)c1C#N [Example 80, 2-Amino-N-(4-(((3,5-dicyano-4-ethyl-6-(4-methyl-1,4-diazepan-1-yl)pyridin-2-yl)thio)methyl)benzyl)acetamide]",–
1000 to 31600,–,316 to 1000,316 to 1000 nM,–,"CCc1c(C#N)c(SCc2ccc(COC(C)=O)cc2)nc(N2CCCN(C)CC2)c1C#N [Example 82, 4-(((3,5-Dicyano-4-ethyl-6-(4-methyl-1,4-diazepan-1-yl)pyridin-2-yl)thio)methyl)benzyl acetate]",–
